Here are results for 29 molecules from patent publication US4616087A, “2,5-bis alkyl sulfonyl and 2,5-bis alkyl thio substituted-pyridines” (The Dow Chemical Company, priority 1982, dated 1986).

For the assay, the system named is rhinovirus type 1A (RV-1A), rhinovirus type 2 (RV-2) or Coxsackie A21 virus (Cox A21). Description: Tissue Culture testing, antiviral activity (virus not specified). Conditions: HeLa cells; qualitative. Format: cell-based. As to the method:
Monolayered HeLa cells in 16 millimeter (mm) tissue culture dishes were treated with 1 ml of culture medium (Eagles medium supplemented with fetal calf serum) containing subject compound at an appropriate concentration or containing no compound at all. Culture media such as those described herein are more fully described in standard texts, as for example, Kuchler's Biochemical Methods in Cell Culture and Virology, Dowden, Hutchinson and Ross, Inc., Stroudsberg, PA (1977). Following treatment, cells were challenged with 0.05 ml of rhinovirus type 1A (RV-1A), rhinovirus type 2 (RV-2) or Coxsackie A21 virus (Cox A21) in culture medium. Some of the compounds were also tested against rhinovirus type 5 (RV-5), rhinovirus type 8 (RV-8) or rhinovirus type 64 (RV-64). Cell controls received no viruses.

On to `CC(=O)c1ccc(Oc2ccc(S(=O)(=O)C(C)C)cn2)cc1` [1-(4-((5-((1-methylethyl)sulfonyl)-2-pyridinyl)oxy)phenyl)ethanone], for which the “antiviral activity in the Tissue Culture testing” value (from here on “antiviral activity”) was “exhibiting antiviral activity”.

For the molecule `CC(=O)c1ccc(Oc2ccc(S(C)(=O)=O)cn2)cc1` [1-(4-((5-(methylsulfonyl)-2-pyridinyl)oxy)phenyl)ethanone], the “antiviral activity” value is given as “exhibiting antiviral activity”.

As to `CCS(=O)(=O)c1cccnc1Oc1ccc(Cl)c(Cl)c1` [2-(3,4-dichlorophenoxy)-3-(ethylsulfonyl)pyridine], the “antiviral activity” value is reported as “exhibiting antiviral activity”.

For the molecule `O=S(=O)(Cc1ccccc1)c1ccc(Oc2ccc(Cl)c(Cl)c2)nc1` [2-(3,4-dichlorophenoxy)-5-((phenylmethyl)sulfonyl)pyridine], the “antiviral activity” value is on record as “exhibiting antiviral activity”.

`O=S(=O)(c1ccc(Oc2ccc(Cl)c(Cl)c2)nc1)C1CCCCC1` [2-(3,4-dichlorophenoxy)-5-(cyclohexylsulfonyl)pyridine]: the “antiviral activity” value is “exhibiting antiviral activity”.

As for `CCS(=O)(=O)c1ccc(Oc2ccc(Cl)c(Cl)c2)nc1` [2-(3,4-dichlorophenoxy)-5-(ethylsulfonyl)pyridine], the “antiviral activity” value is listed as “exhibiting antiviral activity”.

`CS(=O)(=O)c1ccc(Oc2ccc(Cl)c(Cl)c2)nc1` [2-(3,4-dichlorophenoxy)-5-(methylsulfonyl)pyridine]: the “antiviral activity” value is “exhibiting antiviral activity”.

Regarding `CCCCCCS(=O)(=O)c1ccc(Oc2ccc(Cl)c(Cl)c2)nc1` [2-(3,4-dichlorophenoxy)-5-(n-hexylsulfonyl)pyridine], the “antiviral activity” value is given as “exhibiting antiviral activity”.

For `CS(=O)(=O)c1ccc(Oc2cccc(Br)c2)nc1` [2-(3-bromophenoxy)-5-(methylsulfonyl)pyridine], the “antiviral activity” value is given as “exhibiting antiviral activity”.

For the molecule `CC(C)(C)c1ccc(Oc2ccc(S(C)(=O)=O)cn2)cc1` [2-(4-(1,1-dimethylethyl)phenoxy)-5-(methylsulfonyl)pyridine], the “antiviral activity” value is recorded as “exhibiting antiviral activity”.

Take `CSc1ccc(Oc2ccc(S(C)(=O)=O)cn2)cc1` [2-(4-(methylthio)phenoxy)-5-(methylsulfonyl)pyridine]: the “antiviral activity” value is “exhibiting antiviral activity”.

As to `CC(C)S(=O)(=O)c1ccc(Oc2ccc(Br)cc2)nc1` [2-(4-bromophenoxy)-5-((1-methylethyl)sulfonyl)pyridine], the “antiviral activity” value was “exhibiting antiviral activity”.

As for `O=S(=O)(Cc1ccccc1)c1ccc(Oc2ccc(Br)cc2)nc1` [2-(4-bromophenoxy)-5-((phenylmethyl)sulfonyl)pyridine], the “antiviral activity” value is “exhibiting antiviral activity”.

With `O=S(=O)(c1ccc(Oc2ccc(Br)cc2)nc1)C1CCCCC1` [2-(4-bromophenoxy)-5-(cyclohexylsulfonyl)pyridine], the “antiviral activity” value is given as “exhibiting antiviral activity”.

Consider `CS(=O)(=O)c1ccc(Oc2ccc(Br)cc2)nc1` [2-(4-bromophenoxy)-5-(methylsulfonyl)pyridine], for which the “antiviral activity” value was “exhibiting antiviral activity”.

Take `O=S(=O)(c1ccccc1)c1ccc(Oc2ccc(Br)cc2)nc1` [2-(4-bromophenoxy)-5-(phenylsulfonyl)pyridine]: the “antiviral activity” value is on record as “exhibiting antiviral activity”.

As to `CCS(=O)(=O)c1ccc(Oc2ccc(Cl)cc2)nc1` [2-(4-chlorophenoxy)-5-(ethylsulfonyl)pyridine], the “antiviral activity” value is reported as “exhibiting antiviral activity”.

`CS(=O)(=O)c1ccc(Oc2ccc(Cl)cc2)nc1` [2-(4-chlorophenoxy)-5-(methylsulfonyl)pyridine]: the “antiviral activity” value is “exhibiting antiviral activity”.

`CS(=O)(=O)c1ccc(Oc2cccc(C#N)c2)nc1` [3-((5-(methylsulfonyl)-2-pyridinyl)oxy)benzonitrile]: the “antiviral activity” value is on record as “exhibiting antiviral activity”.

`CS(=O)(=O)c1ccc(Oc2ccc(C#N)cc2)nc1` [4-((5-(methylsulfonyl)-2-pyridinyl)oxy)benzonitrile]: the “antiviral activity” value is reported as “exhibiting antiviral activity”.

Take `CCS(=O)(=O)c1ccc(Oc2cc(Cl)c(Cl)cc2Cl)nc1` [5-(ethylsulfonyl)-2-(2,4,5-trichlorophenoxy)pyridine]: the “antiviral activity” value is “exhibiting antiviral activity”.

As to `CCS(=O)(=O)c1ccc(Oc2ccc(Oc3ccccc3)cc2)nc1` [5-(ethylsulfonyl)-2-(4-phenoxyphenoxy)pyridine], the “antiviral activity” value is “exhibiting antiviral activity”.

As for `CS(=O)(=O)c1ccc(Oc2ccc(Oc3ccccc3)cc2)nc1` [5-(methylsulfonyl)-2-(4-phenoxyphenoxy)pyridine], the “antiviral activity” value was “exhibiting antiviral activity”.

Regarding `CS(=O)(=O)c1cccnc1Oc1ccc(C(=O)c2ccccc2)cc1` [(4-((3-(methylsulfonyl)-2-pyridinyl)oxy)phenyl)phenylmethanone], the “antiviral activity” value was “exhibiting antiviral activity”.

For `CC(C)S(=O)(=O)c1ccc(Oc2ccc(C(=O)c3ccccc3)cc2)nc1` [(4-((5-((1-methylethyl)sulfonyl)-2-pyridinyl)oxy)phenyl)phenylmethanone], the “antiviral activity” value is “exhibiting antiviral activity”.

Regarding `O=C(c1ccccc1)c1ccc(Oc2ccc(S(=O)(=O)C3CCCCC3)cn2)cc1` [(4-((5-(cyclohexylsulfonyl)-2-pyridinyl)oxy)phenyl)phenylmethanone], the “antiviral activity” value is listed as “exhibiting antiviral activity”.

Take `CCS(=O)(=O)c1ccc(Oc2ccc(C(=O)c3ccccc3)cc2)nc1` [(4-((5-(ethylsulfonyl)-2-pyidinyl)oxy)phenyl)phenylmethanone]: the “antiviral activity” value is “exhibiting antiviral activity”.

For `CS(=O)(=O)c1ccc(Oc2ccc(C(=O)c3ccccc3)cc2)nc1` [(4-((5-(methylsulfonyl)-2-pyridinyl)oxy)phenyl)phenylmethanone], the “antiviral activity” value is on record as “exhibiting antiviral activity”.

On to `CCCCCCS(=O)(=O)c1ccc(Oc2ccc(C(=O)c3ccccc3)cc2)nc1` [(4-((5-(n-hexylsulfonyl)-2-pyridinyl)oxy)phenyl)phenylmethanone], for which the “antiviral activity” value is “exhibiting antiviral activity”.
